According to patent publication US20260034253A1, “NECTIN-4 MINIPROTEIN CONJUGATES” (Aktis Oncology, Inc., priority 2022, published 2026):

Legend:
[1] = test system: HT1376 urothelial cancer cells; experiment: In vitro cell cytotoxicity assay of actinium-225 radioconjugates (CellTiter-Glo); type: cell-based; conditions: compound radiolabeled with 225Ac, 24 hours treatment, 4-5 days regrowth, cell viability
Experimental: Cytotoxicity to actinium-225 radioconjugates was assessed in HT1376 urothelial cancer cells. Cells were seeded in 96-well plates at densities of 250 to 1000 cells per well two days prior to treatment. On the day of treatment actinium-225 radioconjugates were diluted in culture medium to concentrations ranging from 0.0001 to 100 uCi/mL and treatment solutions were incubated with cells for 24 hours. At the end of the treatment period, the treatment solution was removed, and fresh culture medium was replenished for the regrowth period of the assay that lasted 4-5 days. At the end of the regrowth period the culture medium was removed and viability was assessed by CellTiter-Glo (Promega, Waltham MA) luminescent assay and the plates were read on a Perkin Elmer Enspire multimode plate reader. Data were normalized to treatment controls and plotted as non-linear sigmoidal dose response curves to determine the effective concentration for 50% reduction in cell viability.

[2] = Thermal stability at 75° C. in 0.9% saline by HPLC; type: physicochemical; conditions: 1 mg/mL, 0.9% Saline solution, 60 minutes, FIG. 7
Experimental: The thermal stability of an exemplary compound, C215, was analyzed at a concentration of 1 mg/mL at 75° C. in 0.9% Saline solution. A heating plate was set to 75° C. and the sample was heated for a period of one hour. The vial was shaken prior to collecting […] at 5, 10, 15, 30 and 60 minute time intervals. The % parent remaining was analyzed by HPLC using the following system and method: Analytical Agilent 1100 HPLC system using a 4.6×250 mm, 300 Angstrom, BEH300, […], Xbridge C18 column at […]. The solvent system consisted of A=Water+0.1% TFA, B=Acetonitrile+0.1% TFA. The gradient consisted of 5% to 70% B over 15 minutes, then the column was washed and equilibrated to initial conditions.

For “C215 (CEYDEEFFTALKRLRGGDICYYIKKKFKKVPKLCIEEILDKLGC) [Compound C215]”, the “EC50 (microcurie/milliliter) for Ac-225 radioconjugates” value [1] was 0.086 microcurie/milliliter and the “Thermal stability (% parent remaining)” value [2] was “remain stable”.
